Reference: patent US20050112251A1, “Preservation of liquids” (priority 2002, published 2005)
One block for each compound: values may come before it.

Tests used:
[1] = system: Aspergillus versicolor 245.62; test: Natamycin MIC, agar diffusion method; assay type: cell-based
Method: (§1) The minimal inhibition concentration (MIC) of these fungi or the minimal effective amount of the antifungal compound was determined using the agar diffusion method, which is well known in the art. Fungus spores were grown on agar plates containing different concentrations of natamycin. The concentration of natamycin on which no visible growth could be observed was considered as the minimal inhibition concentration for that particular fungus strain.

[2] = system: Byssochlamys nivea 424.300; test: Natamycin MIC, agar diffusion method; assay type: cell-based; settings: Paecilomyces niveus, agar plates, no visible growth
Method: as §1

[3] = system: Cladosporium tenuissimum 117.79; test: Natamycin MIC, agar diffusion method; assay type: cell-based; settings: isolated from fruit
Method: as §1

[4] = system: Mucor circinelloides 366.70; test: Natamycin MIC, agar diffusion method; assay type: cell-based; settings: isolated from strawberries
Method: as §1

[5] = system: Peacilomyces variotii 10274; test: Natamycin MIC, agar diffusion method; assay type: cell-based
Method: as §1

[6] = system: Stemphiliomma valparadisiacum 510.83; test: Natamycin MIC, agar diffusion method; assay type: cell-based; settings: isolated from apple juice
Method: as §1

[7] = system: Talaromyces macrosporus 130.89; test: Natamycin MIC, agar diffusion method; assay type: cell-based; settings: isolated from pineapple juice
Method: as §1

[8] = system: Zygosporium mycophilum 396.49; test: Natamycin MIC, agar diffusion method; assay type: cell-based; settings: isolated from apple pulp
Method: as §1

[9] = system: Zygosaccharomyces bailii CBS 1097; test: Time to spoilage of inoculated apple juice (visible growth, turbidity); assay type: cell-based; settings: room temperature
Method: (§2) All experiments were done with pure apple juice. The chosen concentrations of natamycin were sub-optimal (=below MIC).
(§3) All experiments were executed in duplo. • a. The effect of natamycin against the spore forming yeast Zygosaccharomyces bailii CBS 1097 was examined. Apple juice was inoculated with 10^4 Colony Forming Units (CFU)/ml of apple juice. Natamycin was added at a concentration of 1 ppm. • b. The effect of natamycin was tested against Penicillium italicum ATCC 36041. A spore suspension was prepared using well-known methods. The freshly prepared spore suspension was added to apple juice to a final concentration of 104 spores/ml of apple juice. Natamycin was added at a concentration of 5 ppm.
(§4) The samples were incubated at room temperature until fungal growth was visually observed (turbidity of the juice).
(§5) The pulsed electric fields treatments were applied according to well-known procedures for PEF-treatments of liquids. The apple juice to be treated was pumped through the PEF-treatment chamber with a flow rate of 60 litres per hour. The treatment temperature also called juice temperature before the PEF-treatment chamber was 17° C. The value of the electric field strength and the pulse length kept constant were 35 kV/cm and 2-μs, respectively. Three samples points were validated by variation of the pulse frequency, from 8.6 Hz (treatment A) to 5.7 Hz (treatment B) and 2.9 Hz (treatment C). With the above-mentioned parameters, the apple juice received 12, 8 or 4 pulses; those correspond to an energy density of 71, 37 and 12.5 J/ml of juice, respectively.
The chosen inoculation levels, natamycin concentrations and PEF treatments were as described in the examples 2 and 3.
(§6) All samples were incubated at room temperature until fungal growth was visually observed (turbidity of the juice).
Zygosaccharomyces bailii was inoculated in apple juice as described in example 2. Sorbate was added at a concentration of 800 ppm.
The PEF-treatment was used as described in the example 3. […] (treatment B).
The samples were incubated at room temperature.

[10] = system: Penicillium italicum ATCC 36041; test: as above; assay type: cell-based; settings: room temperature
Method: as §2, §3, §4, §5
The chosen inoculation levels, natamycin concentrations and PEF treatments were as described in the examples 2 and 3. The natamycin can be added before or after the PEF treatment.
as §6

[11] = system: Talaromyces macrosporus CBS 130.89 spores; test: Time to visible growth of heat-resistant fungus spores in apple juice; assay type: cell-based; settings: 104 spores/ml apple juice, incubation 25° C.
Method: This example describes the activity of natamycin against spores of a heat resistant fungal species, which is well known for causing spoilage problems in food industry. All experiments were executed on Talaromyces macrosporus CBS 130.89 spores suspended in pure apple juice. The chosen concentration of natamycin was sub-optimal. […] All experiment were executed in duplo.
Apple juice was inoculated with 104 spores/ml of apple juice. Natamycin was added at a concentration of 2.5 ppm. The spores suspended in the apple juice were submitted to a heat treatment at 80° C. for 5 minutes in order to stimulate their germination.
The samples were incubated at room temperature until fungal growth was visually observed (turbidity of the juice). Growth was observed after 4 days of incubation at 25° C.
This example describes the effect of a Pulsed Electric Field treatment against heat-resistant spores of Talaromyces macrosporus CBS 130.89. The pulsed electric fields treatments were applied as describe in the example 3. One sample point was validated for a frequency of 8.6 Hz (treatment A).
The chosen inoculation levels, natamycin concentrations and PEF treatments were as described in the examples 8 and 9. The natamycin can be added before or after the PEF treatment.
All samples were incubated at room temperature until fungal growth was visually observed (turbidity of the juice). […]

[12] = Stability of antifungal agent in apple juice during PEF treatment (HPLC); assay type: physicochemical; settings: for inactivation of the antifungal agent by the PEF treatment: general statement in the description
Method: as §5
This example illustrates the resistance of natamycin to PEF treatments. Natamycin was added to apple juice at a concentration of 5 ppm and submitted to pulsed electric field treatments as described in example 3. The natamycin content after the PEF-treatments was determined by HPLC.

[13] = system: fungal spores which survived the PEF treatment; test: Inhibition of outgrowth of fungal spores, summary of agar diffusion MIC; assay type: cell-based; settings: summary of Table 1
Method: as §1

most food born fungi = settings: cited from earlier work
[14] = cited from earlier work
[15] = natamycin 5 ppm + PEF-treatment C (2.9 Hz, 12.5 J/ml)

- MIC [1]: < 2.5 µg/mL
- MIC [2]: < 2.5 µg/mL
- MIC [3]: < 2.5 µg/mL
- MIC [4]: < 2.5 µg/mL
- MIC [5]: < 2.5 µg/mL
- MIC [6]: < 5 µg/mL
- MIC [7]: < 2.5 µg/mL
- MIC [8]: < 2.5 µg/mL
- inactivation of the antifungal agent by the PEF treatment [12]: not inactivated
Structure (SMILES): C[C@@H]1C/C=C/C=C/C=C/C=C/[C@H](O[C@@H]2O[C@H](C)[C@@H](O)[C@H](N)[C@@H]2O)C[C@@H]2O[C@](O)(C[C@@H](O)C[C@H]3O[C@@H]3/C=C/C(=O)O1)C[C@H](O)[C@H]2C(=O)O [natamycin]
- Time to spoilage, natamycin added before PEF-treatment ([9]; natamycin 1 ppm + PEF-treatment A (8.6 Hz, 71 J/ml)): >30 days
- Time to spoilage, natamycin added after PEF-treatment ([9]; natamycin 1 ppm + PEF-treatment B (5.7 Hz, 37 J/ml)): >30 days
- Time to spoilage ([9]; natamycin 1.0 ppm alone, 10^4 CFU/ml): 2 days
- Time to spoilage, natamycin added after PEF-treatment [10, 15]: >30 days
- Time to spoilage, natamycin added before PEF-treatment [10, 15]: >30 days
- Time to spoilage ([10]; natamycin 5.0 ppm alone, 104 spores/ml): 4 days
- Time until growth observed ([11]; natamycin 2.5 ppm + PEF-treatment A): 9 days
- Time until growth observed ([11]; natamycin 2.5 ppm alone, heat activation 80° C. 5 minutes): 4 days
- natamycin content after the PEF-treatments (HPLC) ([12]; 5 ppm in apple juice, PEF treatments as in example 3): None of the analyzed samples showed a decrease
- concentration that inhibits the outgrowth of fungal spores [13]: < 5 ppm
- MIC (Minimal Inhibition Concentration) (most food born fungi): less than 10 ppm
- solubility in water [14]: 30 to 50 ppm

Structure (SMILES): CC=CC=CC(=O)O [sorbate]
- Time without observed fungal growth ([9]; sorbate 800 ppm + PEF-treatment B): at least 30 days
- Time until fungal growth visually observed ([9]; sorbate 800 ppm alone): 6 days
- inactivation of the antifungal agent by the PEF treatment [12]: not inactivated
